In patent US12338214B2, “Bexarotene derivatives and their use in treating cancer” (DJ THERAPEUTICS LLC, priority 2018, dated 2025):

Key:
MV4;11 cells = experiment: Cell count activity in MV4;11 cells; type: cell-based, human; details: 5 days, FIG. 5
Procedure: (§1) NB4 cells or MV4;11 cells were grown in RPMI, 10% fetal bovine serum and plated at a density of 25,000 cells/mL in presence or absence of compound of the disclosure (dissolved in DMSO) for 5 days. Cells were counted manually on a light microscope using a hemocytometer and Trypan blue exclusion or on the Nexcelom Cellometer Auto 2000 using Cellometer Viastain AOPI staining solution (Nexcelom CS2-0106).

NB4 cells = experiment: Cell count activity in NB4 cells; type: cell-based, human; details: 5 days, FIG. 4
Procedure: as §1

| Structure (SMILES) | reduction in cell counts (MV4;11 cells) | reduction in cell counts (NB4 cells) |
| --- | --- | --- |
| CC1=C(/C=C/C(C)=C/C=C/C(C)=C/C(=O)O)C(C)(C)CCC1 [ATRA, all-trans retinoic acid] | dose dependent reduction in cell counts |  |
| C=C(c1ccc(C(=O)O)cc1)c1cc2c(cc1C)C(C)(C)CCC2(C)C [bexarotene] |  | dose dependent reduction in cell counts |
